# Molecular target: T1, Menin (Homo sapiens, UniProt O00255)
# T1 sequence (O00255 whole entry): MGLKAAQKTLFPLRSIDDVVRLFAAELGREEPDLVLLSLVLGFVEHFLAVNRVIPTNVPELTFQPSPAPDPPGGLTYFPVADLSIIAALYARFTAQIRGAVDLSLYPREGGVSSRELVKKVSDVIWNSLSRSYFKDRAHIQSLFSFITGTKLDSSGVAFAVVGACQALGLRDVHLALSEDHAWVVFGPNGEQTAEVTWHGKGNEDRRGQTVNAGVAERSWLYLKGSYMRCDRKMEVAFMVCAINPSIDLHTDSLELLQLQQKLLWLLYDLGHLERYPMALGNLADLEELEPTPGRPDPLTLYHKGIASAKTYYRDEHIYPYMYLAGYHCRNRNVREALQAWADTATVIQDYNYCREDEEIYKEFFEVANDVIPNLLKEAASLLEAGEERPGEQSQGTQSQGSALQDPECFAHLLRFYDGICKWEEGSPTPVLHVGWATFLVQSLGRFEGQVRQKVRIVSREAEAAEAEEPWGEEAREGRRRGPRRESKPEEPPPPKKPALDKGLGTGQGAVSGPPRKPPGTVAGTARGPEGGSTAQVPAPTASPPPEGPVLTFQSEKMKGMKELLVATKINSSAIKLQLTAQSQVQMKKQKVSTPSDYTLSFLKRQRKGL
# Assay: Inhibition of biotinylated MLL-1 derived biotinylated Btn-PEG2- PEG2-S-Nva-RWRFPARPGTT-Amide binding to recombinant full length N-terminal His-tagged menin (unknown origin) expressed in Escherichia coli incubated for 10 mins by TR-FRET assay
row,SMILES,IC50
1,FC(F)Cc1cc2c(N3CCC4(CCN(Cc5ccc(N6CCOCC6)cc5)C4)C3)ncnc2s1 (centres undefined),10 nM
2,N#CCc1ccc(CN2CCC3(CCN(c4ncnc5sc(CC(F)(F)F)cc45)C3)C2)cc1 (centres undefined),20 nM
3,CC(C)(C#N)c1ccc(CN2CCC3(CCN(c4ncnc5sc(CC(F)(F)F)cc45)C3)C2)cc1 (centres undefined),20 nM
4,CC(c1ccc(CN2CCC3(CCN(c4ncnc5sc(CC(F)(F)F)cc45)C3)C2)cc1)S(N)(=O)=O (centres undefined),10 nM
5,CN(CCO)c1ccc(CN2CCC3(CCN(c4ncnc5sc(CC(F)(F)F)cc45)C3)C2)cc1 (centres undefined),10 nM
6,NS(=O)(=O)Cc1ccc(CN2CCC3(CCN(c4ncnc5sc(CC(F)(F)F)cc45)C3)C2)cc1 (centres undefined),4 nM
7,NS(=O)(=O)Cc1ccc(CN2CCC3(CCN(c4ncnc5cc(CC(F)(F)F)sc45)C3)C2)cc1 (centres undefined),10 nM
8,C=CC(=O)Nc1ccc(CN2CCC3(CCN(c4ncnc5sc(CC(F)(F)F)cc45)C3)C2)cc1 (centres undefined),10 nM
9,O=S(=O)(Cc1ccc(CN2CCC3(CCN(c4ncnc5sc(CC(F)(F)F)cc45)C3)C2)cc1)NCCO (centres undefined),10 nM
